Here are results for 8 molecules from patent US20050096254A1, “Peptide deformylase activated prodrugs” (priority 2002, published 2005).

Molecules are shown by their SMILES. Values after ≈ are worked out from the molar mass of the structure shown. Like-named read-outs stand apart in the source and are kept apart here. Some results are limits rather than exact numbers.

A word on the MIC: it is the smallest concentration in the dilution series that meets the test's criterion for growth inhibition. The term Ki denotes the equilibrium dissociation constant of an inhibitor or competing ligand from its target.

A short description of data set [1]: Stability in Mueller Hinton Broth. In kind it is physicochemical. As to conditions: for half-life: read-out: Stability Mueller Hinton Broth t1/2 (converted).
Data set [2] is described as follows: Stability in Human Plasma. It is filed as in vitro ADME. The following applies: for half-life: read-out: Stability Human Plasma t1/2.
Data set [3] can be described thus: Stability in Mouse Plasma. It is filed as in vitro ADME. As to conditions: for half-life: read-out: Stability Mouse Plasma t1/2.
A short description of the next data set: Stability in PBS, pH 7.4. In kind it is physicochemical. As to conditions: for Stability PBS, pH 7.4 % left after 6 hrs: pH 7.4, after 6 hrs; for half-life: pH 7.4, read-out: Stability PBS, pH 7.4 t1/2 (converted).
Another data set relates to E. coli. In words: MIC susceptibility testing (modified NCCLS). The following applies: Escherichia coli, ATCC25922; Table 6, E. coli ATCC 25922; read-out: MIC. In kind it is cell-based. The procedure: (§1) The NCCLS (National Committee for Clinical Laboratory Standards), method to determine MIC's of antimicrobial compounds is modified for high-throughput screening. All stocks of tested compounds are prepared in either water or in DMSO depending on solubility. At the highest concentration, DMSO content should not exceed 0.5%. Briefly, twenty 2-fold serial dilutions of test compounds from the highest concentration is made in a 384-well microtiter plate. Each well is inoculated with testing bacteria in broth to a final concentration of approximately 1-1.5×10^6 cells/ml. Bacterial growth is determined by the increase of optical density at 600 nm using a microplate reader (Tecan SpectraFluor Plus).

The next data set deals with S. aureus. Briefly: MIC susceptibility testing (modified NCCLS). In kind it is cell-based. The following applies: Staphylococcus aureus. How it is done:
as §1

Another data set concerns E. faecalis. Briefly: MIC susceptibility testing (modified NCCLS). In kind it is cell-based. The following applies: Enterococcus faecalis, ATCC29212; Table 6, E. faecalis ATCC 29212; read-out: MIC. The procedure: as §1
For the next data set, the system named is P. aeruginosa. Briefly: MIC susceptibility testing (modified NCCLS). In kind it is cell-based. As to conditions: Pseudomonas aeruginosa, ATCC27853; Table 6, P. aeruginosa ATCC 27853; read-out: MIC. How it is done: The NCCLS (National Committee for Clinical Laboratory Standards), method to determine MIC's of antimicrobial compounds is modified for high-throughput screening. All stocks of tested compounds are prepared in either water or in DMSO depending on solubility. At the highest concentration, DMSO content should not exceed 0.5%. Briefly, twenty 2-fold serial dilutions of test compounds from the highest concentration is made in a 384-well microtiter plate. […] Bacterial growth is determined by the increase of optical density at 600 nm using a microplate reader (Tecan SpectraFluor Plus).

In the next data set the target is PDF (Escherichia coli, UniProt P0A6K3). As to conditions: Wei et al. (2000); read-out: Ki (competitive PDF inhibitor); cited from earlier work.
Sequence of PDF (P0A6K3 whole entry): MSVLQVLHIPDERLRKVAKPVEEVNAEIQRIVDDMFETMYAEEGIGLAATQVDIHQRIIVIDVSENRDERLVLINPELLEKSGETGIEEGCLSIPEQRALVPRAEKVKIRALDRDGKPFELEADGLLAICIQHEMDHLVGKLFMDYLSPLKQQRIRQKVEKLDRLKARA

For `COc1cc(CO)cc(Br)c1OC(=O)C(CC(C)C)NC(=O)C(CCSC)NC=O` (centres unmarked) [NB3162, 2-(2-formylamino-4-methylsulfanyl-butyrylamino)-4-methyl-pentanoic Acid 2-bromo-4-hydroxymethyl-6-methoxy-phenyl Ester], in data set [1], the “Stability Mueller Hinton Broth % left after 6 hrs” value was found to be 91%. For the same molecule, the half-life in data set [1] was > 12 h; in data set [2], 0.177 h; in data set [3] it was 0.148 h; in “Stability in PBS, pH 7.4”, > 12 h. The “Stability PBS, pH 7.4 % left after 6 hrs” value in the data set “Stability in PBS, pH 7.4” was 98%.
Turning to `CCn1cc(C(=O)O)c(=O)c2cc(F)c(N3CCNCC3)cc21` [Norfloxacin, norfloxacin, reference compound], the minimum inhibitory concentration (MIC) turned out to be 15.6 ng/mL (≈ 0.0489 µM) with E. coli; 500 ng/mL (≈ 1.57 µM) with S. aureus (ATCC29213, Table 6, S. aureus (MS) ATCC 29213, read-out: MIC); 1000 ng/mL (≈ 3.13 µM) in the data set on S. aureus (ATCC33591, Table 6, S. aureus (MR) ATCC 33591, read-out: MIC); 1000 ng/mL (≈ 3.13 µM) in the data set with E. faecalis; 500 ng/mL (≈ 1.57 µM) in the data set with P. aeruginosa.
`CSCCC(NC=O)C(=O)NC(CC(C)C)C(=O)Oc1c(-c2ccccc2)cc(CO)cc1-c1ccccc1` (centres unmarked) [NB3145, 2-(2-formylamino-4-methylsulfanyl-butyrylamino)-4-methyl-pentanoic Acid 5′-hydroxymethyl-[1,1′;3′,1″]terphenyl-2′-yl Ester]: in [1], the “Stability Mueller Hinton Broth % left after 6 hrs” value is given as 99% and the half-life is > 12 h. Also, in data set [2], the “Stability Human Plasma % left after 120 min” value came to 94% and the half-life was > 2 h. Also, in data set [3], the “Stability Mouse Plasma % left after 10 min” value (“Stability Mouse Plasma % left” below) is recorded as 94% and the half-life was > 0.333 h. Further, in the data set “Stability in PBS, pH 7.4”, the “Stability PBS, pH 7.4 % left after 6 hrs” value came to 99% and the half-life was > 12 h.
For `CSCCC(NC=O)C(=O)NC(CC(C)C)C(=O)Oc1c(C)cc(CO)cc1C` (centres unmarked) [NB3165, 2-(2-formylamino-4-methylsulfanyl-butyrylamino)-4-methyl-pentanoic Acid 4-hydroxymethyl-2,6-dimethyl-phenyl Ester], in data set [1], the “Stability Mueller Hinton Broth % left after 6 hrs” value is 95% and the half-life was > 12 h. In data set [2], the “Stability Human Plasma % left after 120 min” value came to 94% and the half-life was > 2 h. In addition, in data set [3], the “Stability Mouse Plasma % left” value worked out at 94% and the half-life is > 0.333 h. In the data set “Stability in PBS, pH 7.4”, the “Stability PBS, pH 7.4 % left after 6 hrs” value is given as 85% and the half-life was > 12 h.
`CSCCC(NC=O)C(=O)NC(CC(C)C)C(=O)Oc1c(Br)cc(CO)cc1-c1ccco1` (centres unmarked) [NB3177, 2-(2-Formylamino-4-methylsulfanyl-butyrylamino)-4-methyl-pentanoic Acid 2-bromo-6furan-2-yl-4-hydroxymethyl-phenyl Ester]: the “Stability Mueller Hinton Broth % left after 6 hrs” value in data set [1] is listed as 89%. In addition, the half-life was > 12 h in data set [1]; 0.533 h in [2]; > 0.333 h in data set [3]; > 12 h in “Stability in PBS, pH 7.4”. The “Stability Mouse Plasma % left” value in data set [3] amounted to 88%. Also, the “Stability PBS, pH 7.4 % left after 6 hrs” value in “Stability in PBS, pH 7.4” was determined as 95%.
For `Oc1cc(Cl)ccc1Oc1ccc(Cl)cc1Cl` [Triclosan, triclosan, reference compound], the MIC against S. aureus (ATCC 11632 / MSSA) turned out to be 1.95 ng/mL (≈ 0.00675 µM); in the data set with S. aureus (ATCC 13301 / MSSA), 0.488 ng/mL (≈ 0.00169 µM); in the data set with S. aureus (ATCC 14154 / MSSA), 1.95 ng/mL (≈ 0.00675 µM); in the data set on S. aureus (ATCC 33591 / MSSA), 7.81 ng/mL (≈ 0.027 µM); in the data set on S. aureus (ATCC 33592 / MSSA) it was 3.91 ng/mL (≈ 0.0135 µM); against S. aureus (ATCC 33593 / MSSA), 0.977 ng/mL (≈ 0.00337 µM). For the same molecule, the MIC in the data set with S. aureus (ATCC 43300 / MSSA) was 1.95 ng/mL (≈ 0.00675 µM); against S. aureus (ATCC 700260 / MSSA) it was 0.244 ng/mL (≈ 0.000843 µM); in the data set with S. aureus (ATCC 700698 / MSSA) it was 3.91 ng/mL (≈ 0.0135 µM); in the data set on S. aureus (ATCC 700699 / MSSA) it was ≥ 4000 ng/mL; in the data set with S. aureus (ATCC 700787 / MSSA), 1.95 ng/mL (≈ 0.00675 µM); against S. aureus (ATCC 700788 / MSSA), 31.2 ng/mL (≈ 0.108 µM). For the same molecule, inhibition of growth with S. aureus (ATCC 700789 / MSSA) (MIC) required 15.6 ng/mL (≈ 0.054 µM).
For the molecule `CCCCC(CS)C(=O)NC(CCCNC(=N)N)C(=O)Nc1ccc2ccccc2c1` (centres unmarked) [optimal inhibitor], on PDF, the Ki was 15 nM.
`CSCCC(NC=O)C(=O)NC(CC(C)C)C(=O)Oc1c(Br)cc(CO)cc1Br` (centres unmarked) [NB3144, 2-(2-formylamino-4-methylsulfanyl-butyrylamino)-4-methyl-pentanoic Acid 2,6-dibromo-hydroxymethyl-phenyl Ester]: the half-life is 2.9 h in [1] and 3.3 h in the data set “Stability in PBS, pH 7.4”.
